Each structure is given as a SMILES string.

What all share (format): ADME
What all share (conditions): probe aminopyrine

Data set [1] concerns cytochrome P450. The data set can be described thus: Inactivation of cytochrome P450 in rat liver microsomes assessed as inhibition of aminopyrine demethylation at 1 mM preincubated for 12 mins measured 5 mins after substrate addition by Nash reagent based colorimetry (reference value: 0%). (Microsomes from liver hold many membrane-bound enzymes, among them those of drug oxidation.)

Data set [2] relates to cytochrome P450. Nature of the data set: Inactivation of cytochrome P450 in rat liver microsomes assessed as inhibition of aminopyrine demethylation at 0.1 mM preincubated for 12 mins measured 5 mins after substrate addition by Nash reagent based colorimetry (reference value: 0%).
For data set [3], the system named is cytochrome P450. The data set can be described thus: Inactivation of cytochrome P450 in rat liver microsomes assessed as inhibition of aminopyrine demethylation at 1 mM measured without preincubation by Nash reagent based colorimetry (reference value: 0%).
Data set [4] relates to cytochrome P450. The data set can be described thus: Inactivation of cytochrome P450 in rat liver microsomes assessed as inhibition of aminopyrine demethylation at 1 mM measured without preincubation by Nash reagent based colorimetry in presence of flavoprotein amine oxidase alternate substrate-inhibitor methimazole (reference value: 0%).
In data set [5] the test system is cytochrome P450. Nature of the data set: Inactivation of cytochrome P450 in rat liver microsomes assessed as inhibition of aminopyrine demethylation at 1 mM preincubated for 12 mins measured 5 mins after substrate addition by Nash reagent based colorimetry in presence of flavoprotein amine oxidase alternate substrate-inhibitor methimazole (reference value: 0%).

Data set [6] concerns cytochrome P450. Nature of the data set: Inactivation of cytochrome P450 in rat liver microsomes assessed as inhibition of aminopyrine demethylation at 1 mM preincubated for 12 mins measured 5 mins after substrate addition by Nash reagent based colorimetry in absence of cofactor NADPH-generating system (reference value: 0%).
In data set [7] the test system is cytochrome P450. Nature of the data set: Inactivation of cytochrome P450 in rat liver microsomes assessed as inhibition of aminopyrine demethylation at 1 mM preincubated for 12 mins measured 5 mins after substrate addition by Nash reagent based colorimetry in presence of CO/O2 (80:20) (reference value: 0%).
Data set [8] relates to cytochrome P450. The data set can be described thus: Inactivation of cytochrome P450 in rat liver microsomes assessed as inhibition of aminopyrine demethylation at 1 mM preincubated for 12 mins measured 5 mins after substrate addition by Nash reagent based colorimetry in presence of GSH (reference value: 0%).
Data set [9] relates to cytochrome P450. Nature of the data set: Inactivation of cytochrome P450 in rat liver microsomes assessed as inhibition of aminopyrine demethylation at 1 mM measured without preincubation by Nash reagent based colorimetry in presence of GSH (reference value: 0%).

Take `CC(C)NCc1ccc(Br)cc1`: the inhibition at 5 min, 1000 µM in [1] is 27%.
For the compound `C(CCNC1CC1)=C1c2ccccc2CCc2ccccc21`, the inhibition at 5 min, 100 µM in data set [2] was determined as 92%.
Turning to `c1ccc(CN2CCOCC2)cc1`, the inhibition at 5 min, 1000 µM in data set [1] is 34%. The inhibition at 1000 µM in data set [3] was 27%.
Take `Cc1ccc(CNC(C)C)cc1`: the inhibition at 5 min, 1000 µM in data set [1] was found to be 2%.
For the compound `c1ccc(CNC2CC2)cc1`, the results for the inhibition at 1000 µM in [4], in data set [3] and in data set [9] were 25%, 29% and 17%, respectively. Moreover, the inhibition at 5 min, 1000 µM came out at 57% in data set [5]; 13% in data set [6]; 61% in data set [1]; 24% in data set [7]; 62% in data set [8].
Consider `Cc1ccc(CNC2CC2)cc1`, for which the inhibition at 5 min, 1000 µM in data set [1] was 77%.
`CC(C)NCCC=C1c2ccccc2CCc2ccccc21`: the inhibition at 5 min, 100 µM in data set [2] was determined as 55%.
For the compound `CC(C)NCc1ccc(Cl)cc1`, in data set [1], the inhibition at 5 min, 1000 µM is 25%.
Take `Brc1ccc(CNC2CC2)cc1`: in [1], the inhibition at 5 min, 1000 µM is 79%.
On to `COc1ccc(CNC2CC2)cc1`, for which the inhibition at 5 min, 1000 µM in data set [1] came to 54%.
On the same count and under the same terms, next, `Clc1ccc(CNC2CC2)cc1`: 79%; `COc1ccc(CNC(C)C)cc1`: 0%.
Take `CC(C)NCc1ccccc1`: the inhibition at 5 min, 1000 µM in [1] is 9%. The inhibition at 1000 µM in data set [3] worked out at 9%.

A word on the inhibition: it is how much of the control response was suppressed.

The values above are taken from ChEMBL document CHEMBL3227940, “Cyclopropylamines as suicide substrates for cytochromes P-450” (J Med Chem, 1979).
